Key:
[1] = tested on: hypoxic IL-6 Tg mice; assay: Hypoxic IL-6 transgenic pulmonary arterial hypertension mouse model; type: in vivo, IL-6 transgenic C57BL/6 mice
Description: (§1) Following euthanasia, right ventricle/[left ventricle+septum]
Pulmonary-specific IL-6 transgenic mice (C57BL/6 background) were described previously (Steiner M K et al. Circ Res. 2009, 104, 236-244, 228p following 244). These mice were bred in house, and 12 week old male transgenic mice vs. control littermates were compared. Mice were injected i.p. every 3 days with vehicle control (2.5% DMSO) vs. BRD2889 (5 mg/kg vs. 10 mg/kg), followed by exposure to normobaric hypoxia (10% O2; OxyCycler chamber, Biospherix Ltd, Redfield, NY) for 14 days, as described (Steiner M K et al. Circ Res. 2009, 104, 236-244, 228p following 244).
Rodent echocardiography: Echocardiography was performed using a 15-45 MHz transthoracic transducer and a Visual Sonics Vevo 3100 system (Fujifilm). Inhaled isoflurane anesthesia was used at 2% in 100% O2 during positioning and hair removal and then decreased to isoflurane 0.8% during imaging.

[2] = tested on: mitochondrial Complex I; assay: Mitochondrial Complex I activity in PAECs; type: cell-based, human
[3] = tested on: PAECs; assay: Apoptosis by caspase-3/7 activity in PAECs; type: cell-based, human
From the text: Cell culture: Primary human pulmonary artery endothelial cells (PAECs) and human pulmonary artery smooth muscle cells (PASMCs) were purchased from Lonza (302-05A, CC-2581). Of note, the same two male donors were the source of all PAECs in the experiments shown. Two additional male donors were the source for all PASMCs in the experiments shown. Cells from these and any donors were characterized by flow cytometry for consistent expression of cell surface markers and by RNA (RT-qPCR) analysis of endothelial and smooth muscle gene expression. PAECs were cultured in EGM-2 media (CC-3121) along with supplements (CC-4133), and PASMCs were cultured in SmGM-2 culture media (Lonza, CC-3182) at 5% CO2 in a humidified incubator.
Human recombinant galectin-8 (1305-GA-050) was purchased from R&D Systems and was used at a working concentration of 30 nM.
For hypoxia exposure, cells were plated in 6-well cell culture plates at 1×10^5 cells/well, grown for 24 hr and placed into a normobaric hypoxia chamber (1% O2) for 24 h under specific treatment conditions. Namely, for I-BET and siLGALS8 exposures, cells were either pre-treated with I-BET/vehicle control (VC) or transfected with siLgals8/Scr for 24 h. Then, they were cultured in basal media at 1% 02. After 24 h, caspase activity and mitochondrial superoxide levels were quantified. To detect activation status of pSTAT1/STAT1 by immunoblot, cells were exposed to 8 h of hypoxia.
In IL-6/sIL-6R+hypoxia experiments, a human recombinant IL-6/IL-6R alpha protein chimera (25 ng/ml, Millipore) was administered at 70-80% confluency for 48 h in complete media along with vehicle control (DMSO, Sigma-41639). BRD2889 (1 uM) vs. vehicle control were added, as indicated, and placed into a hypoxia chamber for 24 h. The hypoxia chamber (modular incubator chamber) was obtained from Billups-Rothenberg Inc. (Del Mar, Calif) and placed in regulated CO2 incubator at 37° C.
Cellular apoptosis: Caspase-3/7 activity was quantified using the Caspase-Glo 3/7 Assay (Promega), according to manufacturer's instructions. Caspase-3/7 activity was normalized to total protein content determined by BCA method (Thermo Fisher Scientific).

[4] = target: glutathione S-transferase pi 1 (GSTP1) (Homo sapiens, UniProt P09211); settings: literature report; cited from earlier work
[5] = tested on: monocrotaline-exposed pulmonary arterial hypertension rats; assay: Monocrotaline (MCT) pulmonary arterial hypertension rat model; settings: BRD2889 5 mg/kg i.p. every 5 days, Days 12-26 post-MCT
Description: as §1
Measurement of GST activity: The GST activity from lung tissue and PAECs was assayed using GST assay kit (Cayman, MI, USA) per the manufacturer's instructions.

[6] = tested on: PAECs; assay: Global transcriptome microarray in PAECs; type: cell-based, human; settings: transcriptional array, hypoxia +/- BRD2889
From the text: The gene expression was normalized with Robust Multiarray Analysis (RMA). For BRD2889, the same approach was employed using Affymetrix Clariom S array on RNA isolated from PAECs treated with BRD2889 or vehicle and subjected to either hypoxia or normoxia. Differentially expressed genes were defined as any gene for which the FDR adjusted p-value was below 0.05 (n=3/grp). Reversed genes were further defined as those genes that were differentially expressed in both (hypoxia versus normoxia) and in (hypoxia+BRD2889 versus hypoxia)+vehicle as well as were regulated in opposite directions. Similarly, for I-BET that were differentially expressed in IL-1β+VC versus control and IL-1β+I-BET versus IL-1β+VC and were regulated in opposite directions. The data for both I-BET and BRD2889 have been submitted to the NCBI Gene Expression Omnibus with accession numbers GSE125508 and GSE160255, respectively.

[7] = BRD2889 10 mg/kg vs vehicle, 10 days of treatment
[8] = BRD2889 5 and 10 mg/kg IP every three days
[9] = hypoxic PAECs with siRNA knockdown of ISCU

Chain of glutathione S-transferase pi 1 (GSTP1) (P09211 whole entry, species assumed): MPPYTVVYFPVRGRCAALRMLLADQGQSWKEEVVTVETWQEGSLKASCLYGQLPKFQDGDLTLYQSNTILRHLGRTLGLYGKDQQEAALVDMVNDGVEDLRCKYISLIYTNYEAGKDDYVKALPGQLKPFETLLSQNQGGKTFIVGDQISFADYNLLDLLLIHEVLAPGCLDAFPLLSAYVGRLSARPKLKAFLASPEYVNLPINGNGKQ

COc1ccc(C#CC2CCCN(C(=O)/C=C/c3cc(OC)c(OC)c(OC)c3)C2=O)cc1 (stereo not shown) [BRD2889]
lung total GST enzyme activity ([1]; BRD2889 5 mg/kg (low) and 10 mg/kg (high) IP every three days, 14 days hypoxia): dose-dependent reduction | heart rate [1, 7]: No differences | left ventricular function (fractional shortening, ejection fraction, PW thickness) [1, 7]: No differences | Fulton index [1, 8]: dose-dependent reduction | ISCU in arterioles, particularly CD31+ endothelium (in situ staining) [1, 8]: rescued | RVSP [1, 8]: dose-dependent reduction | arteriolar muscularization [1, 8]: reduced | cleaved caspase-3 (CC-3) in whole vessels [1, 8]: decreased | mitochondrial Complex I activity ([2]; PAECs, IL-6/sIL-6R + hypoxia): partially rescued | iron-sulfur-dependent mitochondrial Complex I activity ([2]; hypoxic PAECs): reversed the decrease | hypoxia-induced decrease in mitochondrial Complex I activity [2, 9]: did not reverse | apoptosis (caspase 3/7) ([3]; PAECs, IL-6/sIL-6R + hypoxia): reduced apoptosis | apoptosis (caspase 3/7 activity) ([3]; hypoxic PAECs): reversed the increase | hypoxic increase in apoptosis [3, 9]: did not reverse | inhibition of GSTP1 [4]: known to inhibit | Fulton index (RV/LV+S) [5]: reduced | RVSP [5]: reduced | arteriolar muscularization [5]: reduced | cleaved caspase-3 (CC-3) [5]: decreased | endothelial ISCU [5]: increased | lung GST activity [5]: decreased | number of genes altered by hypoxia but reversed by drug [6]: 3830 genes

— patent US12599592B2, “Therapeutic small molecules for treatment of pulmonary hypertension” (UNIVERSITY OF PITTSBURGH—OF THE COMMONWEALTH SYSTEM OF …, priority 2020, dated 2026)
